Source: patent US20210137126A1, “USE OF PEPTIDES AS IN[…]” (INSTITUT NATIONAL DES SCIENCES APPLIQUEES DE LYON, priority 2018, published 2021)

System: pea aphid Acyrthosiphon pisum
Assay: Insecticide test: ingestion of the peptide in artificial medium by pea aphid larvae, mortality monitored over 7 days
Format: in vivo
Settings: for TL50 (lethal time at which mortality of individuals is 50%): survival analysis, normal logarithmic adjustment
Protocol: The experiments were carried out on aphids from the parthenogenetic clone of the pea aphid LL01 which contained only the primary symbiont B. aphidicola. The aphids were bred and kept on feva bean plants (Vicia faba L., Aquadulce variety) under climate-controlled conditions (temperature 21±1° C., relative humidity 70%, photoperiod of 16 h), in order to obtain aphids which reproduced solely by viviparous parthenogenesis. In order to reduce the variability linked to the use of individuals at different stages of development, the aphids were obtained from a synchronized brood. For this, adult aphids that were ready to lay were placed on feva bean plants. […] The manipulation was carried out with a negative control composed solely of artificial medium and a positive control representing one of the concentrations of the range being studied with the aphids. The range being studied comprised different media containing the BCR4 peptide studied at various concentrations which varied from 5 to 80 μM. The experiments were carried out on thirty larvae per condition divided into three distinct groups of ten individuals.
All of the data regarding the mortality of the aphids were analyzed statistically by standard survival processing. All of the BCR4 concentrations were analyzed separately in a parametric survival analysis with a normal logarithmic adjustment.
The measurement of the insecticidal activity of BCR4 was carried out by incorporating increasing doses of peptides into the nutrient medium for the aphids and monitoring of their mortality was carried out over 7 days.

DFDPTEFKGPFPTIEICSKYCAVVCNYTSRPCYCVEAAKERDQWFPYCYD (listed as Acyrthosiphon pisum) [BCR4, Bacteriocyte Cysteine Rich peptide of Acyrthosiphon pisum]
TL50 (lethal time at which mortality of individuals is 50%) (BCR4 concentration 5 μM in artificial medium): >20 days
TL50 (lethal time at which mortality of individuals is 50%) (BCR4 concentration 10 μM in artificial medium): 11.3 days
TL50 (lethal time at which mortality of individuals is 50%) (BCR4 concentration 20 μM in artificial medium): 3.48 days
TL50 (lethal time at which mortality of individuals is 50%) (BCR4 concentration 27.5 μM in artificial medium): 3.24 days
TL50 (lethal time at which mortality of individuals is 50%) (BCR4 concentration 35 μM in artificial medium): 1.94 days
TL50 (lethal time at which mortality of individuals is 50%) (BCR4 concentration 40 μM in artificial medium): 1.76 days
TL50 (lethal time at which mortality of individuals is 50%) (BCR4 concentration 80 μM in artificial medium): 1.16 days
mortality at onset of the dose-response effect (from the first day following ingestion): high mortality
dose-response over the survival time for the aphids (increasing doses 5 to 80 μM, mortality monitored over 7 days): very significant dose-response
range of activity (insecticidal) (pea aphid, peptide in nutrient medium): 5 to 80 µM
